#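 Protocol summary: plate cells (96-well), add compound at 5 concentrations, incubate 48 h, interpolate endpoints linearly. Here, GI50 denotes the concentration required for 50% inhibition of growth.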 Active and inactive are the calls of the source. Cut-off read from the data, not from the text of the source: active = GI50 up to about 1.1 µM and inactive = higher.
# Key:
# Test in all cases: growth of human tumour cells (NCI), 48 h
# 786-0 = test system: 786-0
# A549 = test system: A549
# ACHN = test system: ACHN
# DMS-273 = test system: DMS-273
# DU-145 = test system: DU-145
# HCT-15 = test system: HCT-15
# HL-60 = test system: HL-60
# LOX IMVI = test system: LOX IMVI
# M14 = test system: M14
# MDA-N = test system: MDA-N
# NCI-H460 = test system: NCI-H460
# NCI-H522 = test system: NCI-H522
# OVCAR-4 = test system: OVCAR-4
# OVCAR-8 = test system: OVCAR-8
# RPMI-8226 = test system: RPMI-8226
# RXF 393 = test system: RXF 393
# SF-295 = test system: SF-295
# SNB-19 = test system: SNB-19
# T47D = test system: T47D
# TK-10 = test system: TK-10
Structure (SMILES),GI50 (786-0),GI50 (A549),GI50 (ACHN),GI50 (DMS-273),GI50 (DU-145),GI50 (HCT-15),GI50 (HL-60),GI50 (LOX IMVI),GI50 (M14),GI50 (MDA-N),GI50 (NCI-H460),GI50 (NCI-H522),GI50 (OVCAR-4),GI50 (OVCAR-8),GI50 (RPMI-8226),GI50 (RXF 393),GI50 (SF-295),GI50 (SNB-19),GI50 (T47D),GI50 (TK-10)
O=C1/C(=C/c2ccccc2)CN(C(=O)CCN2CCOCC2)C/C1=C\c1ccccc1,1.96 µM (inactive),7.16 µM (inactive),3.49 µM (inactive),1.87 µM (inactive),16 µM (inactive),2.14 µM,1.32 µM (inactive),0.897 µM (active),2.33 µM (inactive),2.06 µM (inactive),2.36 µM (inactive),2.01 µM (inactive),2.94 µM (inactive),2.99 µM (inactive),0.519 µM (active),4.38 µM (inactive),2.42 µM (inactive),5.45 µM (inactive),3.34 µM (inactive),11.9 µM (inactive)
CCN(CC)CCn1ccc(=O)c2cc3c(=O)ccn(CCN(CC)CC)c3c(C)c21,1.92 µM (inactive),4.27 µM (inactive),4.02 µM (inactive),3.58 µM (inactive),5.19 µM (inactive),3.38 µM,1.42 µM (inactive),2.84 µM (inactive),9.38 µM (inactive),5.57 µM (inactive),1.31 µM (inactive),6.37 µM (inactive),2.02 µM (inactive),2.87 µM (inactive),2.1 µM (inactive),4.56 µM (inactive),4.47 µM (inactive),5.15 µM (inactive),25.1 µM (inactive),7.43 µM (inactive)
C=C(CN(C)C)C(=O)c1ccccc1[N+](=O)[O-],12.2 µM (inactive),> 57.8 µM (inactive),16.1 µM (inactive),18.2 µM (inactive),23.6 µM (inactive),10.8 µM,2.79 µM (inactive),7.94 µM (inactive),15.5 µM (inactive),14.5 µM (inactive),34 µM (inactive),3.56 µM (inactive),16.9 µM (inactive),20.2 µM (inactive),,16.1 µM (inactive),32.8 µM (inactive),> 56.4 µM (inactive),3.83 µM (inactive),19.5 µM (inactive)

# Source: ChEMBL document CHEMBL1201862, “PubChem BioAssay data set” (2004)
